Entries after “also recorded” stand apart in the source; their conditions may differ.
Legend:
Type in all cases: in vivo, human
[1] = Profiling of cinnamides in American beef extract base together with monosodium glutamate (enhancing effect), trained panel, descriptors scored 0-9; details: for enhancement of the monosodium glutamate effect: sample (iv) versus sample (ii) base + 0.05% MSG, FIG. 3: 20 ppm + 0.0025% monosodium glutamate in beef extract base
Description: An American beef extract as the base, a corresponding sauce mixed with monosodium glutamate, a corresponding sauce mixed with the cinnamide and a corresponding base mixed with monosodium glutamate were in each case administered blind individually to 15-25 trained panelists for profiling. Using the descriptors previously decided upon by discussion (mouth-fill, salty, metallic, meaty, bitter, mouth-watering, barbecued-roasted, sweet, sour, lingering) the strength of these was assessed on a scale of 0 (imperceptible) through 9 (very strong). The individual results of the panelists were averaged. […]
Here again (i) a beef extract as the base is compared with (ii) such a base with the addition of 0.05% monosodium glutamate, (iii) such a base with the addition of 0.0025% monosodium glutamate and (iv) such a base with the addition of 0.0025% monosodium glutamate and 5 ppm rubescenamine (3). […]
The test subjects assessed the strength of the stated flavors by giving a score on a scale of 0 (imperceptible) through 9 (very strong corresponding taste). The mean values of the respective scorings are shown. […]

[2] = Profiling of cinnamides in a complex base (American beef extract) by 15-25 trained panelists, descriptors scored 0-9, compared with MSG; details: for umami taste character compared with monosodium glutamate: comparison base + 0.05 wt. % MSG
Description: An American beef extract as the base, a corresponding base mixed with monosodium glutamate and a corresponding base mixed with the cinnamide were in each case administered blind individually to 15-25 trained panelists for profiling. Using the descriptors previously decided upon by discussion (mouth-fill, salty, metallic, meaty, bitter, mouth-watering, barbecued-roasted, sweet, sour, lingering) the strength of these was assessed on a scale of 0 (imperceptible) through 9 (very strong). The individual results of the panelists were averaged.
In the spider chart attached as FIG. 1 the profile of an American beef extract as the base (i) is compared with such a base with the addition of 10 ppm (iii) or 50 ppm rubemamine ([…]) (iv) and with a sample (ii) of such a base with the addition of 0.05 wt. % MSG (monosodium glutamate).
In the spider chart attached as FIG. 2 the profile of an American beef extract as the base (i) is compared with such a base with the addition of 5 ppm (iii) or 10 ppm rubescenamine (compound (3)) (iv) and with a sample (ii) of such a base with the addition of 0.05 wt. % MSG (monosodium glutamate).
The taste of a 0.5% American beef extract as base (i) was compared in a tasting by a panel of trained test subjects with the taste of such a base with 10 ppm (iii) or 50 ppm (iv) rubemamine (1) added, and such a base with 0.05 wt. % MSG added (ii).
The test subjects assessed the strength of the stated flavors by giving a score on a scale of 0 (imperceptible) through 9 (very strong corresponding taste). The mean values of the respective scorings are shown.
The taste of a 0.5% American beef extract as base (i) was compared in a tasting by a panel of trained test subjects with the taste of such a base with 5 ppm (iii) or 10 ppm (iv) rubescenamine (3) added, and such a base with 0.05 wt. % MSG added (ii).

[3] = Simple profiling of cinnamides dissolved in water, tasting by a group of experts with open discussion
Description: The compounds were dissolved in water in the stated concentration and assessed by a group of experts by tasting with open discussion.

[4] = 5 ppm + 0.0025% monosodium glutamate in beef extract base, listed as rubescenamine (3)

COc1ccc(/C=C/C(=O)NCCc2ccc(OC)c(OC)c2)cc1OC [Compound (1), rubemamine]
enhancement of the monosodium glutamate effect: sample (iv) versus sample (ii) base + 0.05% MSG, FIG. 3 [1]: hardly distinguishable from one another other than a slightly lower sweetness | enhancement of the monosodium glutamate effect: sample (iv) versus sample (ii) base + 0.05% MSG, FIG. 3 ([1]; listed as rubemamine (1)): virtually indistinguishable | umami taste character compared with monosodium glutamate ([2]; 10 mg/kg test concentration in American beef extract base): umami taste that is very similar to that of monosodium glutamate | Taste profile (concentration in mg/kg) ([3]; 10 mg/kg): Umami (10 mg/kg)

COc1ccc(/C=C/C(=O)NCCc2ccc3c(c2)OCO3)cc1OC [Compound (3), rubescenamine]
enhancement of the monosodium glutamate effect: sample (iv) versus sample (iii) base + 0.0025% MSG, FIG. 4 ([1]; 5 ppm + 0.0025% monosodium glutamate in beef extract base): in respect of virtually all parameters was assessed as stronger than sample (iii) | "salty" parameter: sample (iv) versus sample (ii) base + 0.05% MSG, FIG. 4 [1, 4]: assessed similarly to sample (ii) | enhancement of the monosodium glutamate effect: sample (iv) versus sample (iii) base + 0.0025% MSG, FIG. 4 [1, 4]: assessed more strongly on virtually all parameters than sample (iii) | umami taste character compared with monosodium glutamate ([2]; 5 mg/kg test concentration in American beef extract base): umami taste that is very similar to that of monosodium glutamate | taste profile, strength of descriptors (scale 0-9), FIG. 2 curve iii ([2]; 5 ppm in American beef extract base): strong effect | taste profile, strength of descriptors (scale 0-9), FIG. 2 curve iv, versus sample (ii) base + 0.05 wt. % MSG ([2]; 10 ppm in American beef extract base): for most descriptors is able to achieve a similarly strong assessment to sample (ii) | Taste profile (concentration in mg/kg) ([3]; 10 mg/kg): Umami, otherwise neutral (10 mg/kg)

O=C(/C=C/c1ccccc1)NCCc1ccc2c(c1)OCO2 [Compound (9), zanthomamine]
enhancement of the monosodium glutamate effect: sample (iv) versus sample (iii) base + 0.0025% MSG, FIG. 5 ([1]; 50 ppm + 0.0025% monosodium glutamate in beef extract base): assessed more strongly on virtually all parameters than sample (iii) | Taste profile (concentration in mg/kg) ([3]; 50 mg/kg): Somewhat delayed onset of umami effect (50 mg/kg)

N[C@@H](CCC(=O)O)C(=O)[O-].[Na+] [monosodium glutamate, reference compound]
taste profile of sample (iii) versus base (i) without addition, FIG. 3 ([1]; 0.0025% monosodium glutamate alone in beef extract base): perceived as less strong than the sample (i) without the addition; also recorded: perceived only slightly less strongly than sample (i) without the addition
